{"source": "patent US20190111137A1", "about": "“METHODS FOR ANTAGONISTS OF A NON-SELECTIVE CATION CHANNEL IN NEURAL CELLS” (University of Maryland, Baltimore, priority 2007, published 2019)", "key": {"[1]": {"tested_on": "rat model of contusion SCI", "conditions": "as reported (Simard et al., 2007); cited from earlier work"}, "[2]": {"tested_on": "rodent models of ischemic stroke", "conditions": "cited from earlier work"}, "[3]": {"tested_on": "reactive astrocytes", "conditions": "cells exposed to Na azide to deplete ATP; cited from earlier work"}, "[4]": {"tested_on": "rat model of contusion SCI", "experiment": "Rat model of unilateral cervical spinal cord injury (SCI)", "format": "in vivo", "conditions": "24 h post-SCI"}, "[5]": {"tested_on": "TRPM4 channel", "conditions": "read-out: glibenclamide block (EC50); cited from earlier work"}, "[6]": {"conditions": "constant infusion 75-200 ng/h; cited from earlier work"}, "[7]": {"tested_on": "global cerebral ischemia in gerbils", "conditions": "in vivo; cited from earlier work"}, "[8]": {"tested_on": "rat model of ischemic stroke", "conditions": "given 30 min after initiation of permanent MCAO; cited from earlier work"}, "[9]": {"tested_on": "endothelial cells of the BBB", "conditions": "cited from earlier work"}, "[10]": {"target": "T1, human TRP3 (Homo sapiens, UniProt Q13507)", "T1 construct": "expressed in transfected cells", "T1 sequence (Q13507 1-848 isoform Q13507-3)": "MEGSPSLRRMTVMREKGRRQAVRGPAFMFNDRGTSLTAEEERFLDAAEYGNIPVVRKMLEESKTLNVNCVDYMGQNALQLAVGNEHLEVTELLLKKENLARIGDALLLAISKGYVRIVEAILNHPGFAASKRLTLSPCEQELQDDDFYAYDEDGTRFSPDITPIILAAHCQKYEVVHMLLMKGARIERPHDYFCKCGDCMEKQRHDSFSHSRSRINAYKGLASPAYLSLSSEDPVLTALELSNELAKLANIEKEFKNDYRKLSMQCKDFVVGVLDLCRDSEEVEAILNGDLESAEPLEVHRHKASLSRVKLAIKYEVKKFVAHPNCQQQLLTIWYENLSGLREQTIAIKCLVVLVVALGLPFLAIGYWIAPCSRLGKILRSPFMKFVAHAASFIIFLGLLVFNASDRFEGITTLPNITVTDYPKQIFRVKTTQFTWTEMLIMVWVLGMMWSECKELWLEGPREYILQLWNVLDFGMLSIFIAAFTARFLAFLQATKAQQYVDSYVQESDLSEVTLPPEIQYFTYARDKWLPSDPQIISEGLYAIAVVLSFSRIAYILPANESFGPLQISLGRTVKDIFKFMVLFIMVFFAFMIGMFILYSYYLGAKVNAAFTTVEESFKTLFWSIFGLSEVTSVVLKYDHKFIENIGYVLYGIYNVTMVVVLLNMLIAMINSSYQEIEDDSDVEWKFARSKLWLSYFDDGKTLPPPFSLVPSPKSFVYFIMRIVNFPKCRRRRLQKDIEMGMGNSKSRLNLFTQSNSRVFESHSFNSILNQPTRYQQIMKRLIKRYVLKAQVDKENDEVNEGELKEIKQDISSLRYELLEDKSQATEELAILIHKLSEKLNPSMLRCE", "conditions": "high concentrations; cited from earlier work"}, "[11]": {"target": "receptor-mediated Ca^2+ entry", "conditions": "cited from earlier work"}, "[12]": {"tested_on": "TRPM4", "experiment": "TRPM4 protein in bEnd.3 cells after 6-h exposure to TNFα (Western blot)", "format": "cell-based, murine", "conditions": "20 ng/ml", "description": "TNFα causes up-regulation NCCa-ATP (putative TRPM4) channel in bEnd.3. In certain aspects of the invention, injury leads to NFκB activation, such as SCI, and can result in up-regulation of functional TRPM4 channels. Murine CNS microvascular endothelial cells (bEnd.3, ATTC, Rockville, Md.) were studied under control conditions and after 6-h exposure to the pro-inflammatory cytokine, TNFα (20 ng/ml), which activates NFκB. Cultures were immunolabeled for TRPM4 and TRPM5, the only 2 molecularly identified non-selective cation channels with exclusive monovalent conductivity. […] Immunolabeling for TRPM5 was negative. Western blots confirmed robust up-regulation of TRPM4 (3-fold increase, FIGS. 19C,19D)."}}, "note": "pEC50, pIC50: −log10 of the molar value. Values joined by “and” are separate entries in the source; they are usually repeats but may differ in a detail not shown here. Identical values can stand only once. “Also recorded” adds a separate entry of the source.", "data": [{"compound": "COc1ccc(Cl)cc1C(=O)NCCc1ccc(S(=O)(=O)NC(=O)NC2CCCCC2)cc1", "note": "[glibenclamide]", "values": [{"measurement": "neurological function", "setting": "[1]", "value": "significantly improves neurological outcome; also recorded: improves neurological function"}, {"measurement": "progressive hemorrhagic necrosis", "setting": "[1]", "value": "significantly reduces progressive hemorrhagic necrosis"}, {"measurement": "tissue loss", "setting": "[1]", "value": "significantly reduces"}, {"measurement": "reduction of mortality", "setting": "[2]; massive ischemic stroke with malignant cerebral edema", "value": "half"}, {"measurement": "reduction of cerebral edema (excess water)", "setting": "[2]; massive ischemic stroke with malignant cerebral edema, low-dose, post-ischemic", "value": "half"}, {"measurement": "reduction of lesion volume", "setting": "[2]; stroke induced by thromboemboli with delayed spontaneous reperfusion", "value": "half"}, {"measurement": "blebbing associated with cytotoxic edema", "setting": "[3]", "value": "significantly reduces blebbing"}, {"measurement": "membrane depolarization", "setting": "[3]", "value": "blocks membrane depolarization"}, {"measurement": "necrotic cell death", "setting": "[3]", "value": "significantly reduces necrotic cell death"}, {"measurement": "TRPM4 expression in cord (immunolabeling)", "setting": "[4]", "value": "significantly reduced"}, {"measurement": "pEC50", "setting": "[5]", "value": "4.00 to 5.00"}, {"measurement": "predicted serum concentration", "setting": "[6]", "value": "1-3 ng/ml and 2-6 nM"}]}, {"compound": "Cc1c(C(=O)NN2CCCCC2)nn(-c2ccc(Cl)cc2Cl)c1-c1ccc(Cl)cc1", "note": "[rimonabant]", "values": [{"measurement": "electroencephalographic changes, hyperlocomotion and memory impairment induced by global ischemia", "setting": "[7]", "value": "antagonize"}, {"measurement": "survival of pyramidal cells in the CA1 subfield of the hippocampus", "setting": "[7]", "value": "progressive survival"}, {"measurement": "reduction of infarct volume", "setting": "[8]", "value": "~40", "unit": "%"}]}, {"compound": "COc1ccc(CCCOC(Cn2ccnc2)c2ccc(OC)cc2)cc1.Cl", "note": "(stereo not drawn) [SKF 96365, 1-(beta[3-(4-methoxy-phenyl)propoxy]-4-methoxyphenethyl)-1H-imidazole hydrochloride]", "values": [{"measurement": "expression of the tight junction protein occludin", "setting": "[9]; after hypoxic/aglycemic stress", "value": "increased"}, {"measurement": "hypoxia-induced BBB disruption", "setting": "[9]; normoglycemia", "value": "protective"}, {"measurement": "increased Ca^2+ entry in TRP3-expressing cells", "setting": "[10]", "value": "blocked"}, {"measurement": "pIC50", "setting": "[11]", "value": "~5.00"}]}, {"compound": "TNFα", "values": [{"measurement": "up-regulation of TRPM4 (Western blots)", "setting": "[12]", "value": 3, "unit": "fold"}]}]}
